In patent publication US6608069B1, “Phenyl xanthine derivatives” (SmithKline Beecham Corporation, priority 1998, dated 2003):

What follows are compounds tested on cytokine-stimulated human umbilical vein endothelial cells (assay: Cell Adhesion Assay: adherence of fluorescently-labelled leukocytes to endothelial cell monolayers). Conditions: Homo sapiens; inhibition of cytokine-stimulated adhesion minus basal adhesion; calcein-AM labelled leukocytes on HUVEC monolayers.
Assay type: cell-based
Protocol: The antiadhesion activity of compounds of the invention was determined using a modification of the previously described method, Jurgensen, C. H. et. al., J. Immunol. 144: 653-661. The adhesiveness of cytokine-stimulated human umbilical vein endothelial cells was assessed by quantitating the adherence of fluorescently-labelled (calcein-AM, Molecular Probes, Eugene, Oreg.) leukocytes to endothelial cell monolayers. Activity was determined by calculating inhibition of cytokine-stimulated adhesion minus the basal adhesion (unstimulated).

IC50	Structure (SMILES)
29 ± 11 nM	COCCOCCOCCOCCOCCOCCOCCOCCOCCOCc1cccc(-c2nc3c([nH]2)c(=O)n(CC2CCCCC2)c(=O)n3CC2CCCCC2)c1 [Example 110, 1,3-Bis(cyclohexylmethyl)-8-[3-(2,5,8,11,14,17,20,23,26,29-decaoxatriacont-1-yl)phenyl]-3,7-dihydro-1H-purine-2,6-dione]

Same assay, conditions: inhibition of cytokine-stimulated adhesion minus basal adhesion; calcein-AM labelled leukocytes on HUVEC monolayers

Structure (SMILES)	IC50
COCCOCCOCCOCCOCCOCCOCCOCCOCCOC(=O)c1ccc(-c2nc3c(c(=O)n(CC4CCCCC4)c(=O)n3CC3CCCCC3)n2Cc2ccccc2)cc1 [Example 88, 4-(1,3-Bis(cyclohexylmethyl)-2,3,6,7-tetrahydro-2,6-dioxo-7-benzyl-1H-purin-8-yl)benzoic Acid Nonaethylene Glycol Methyl Ether Ester]	49 ± 19 nM
COCCOCCOCCOCCOCCOCCOCCOCCOCCOC(=O)/C=C/c1ccc(-c2nc3c(=O)n(C)c(=O)n(Cc4cccc(C#N)c4)c3[nH]2)cc1 [Example 52, (E)-4-(1-methyl-3-(3-cyanobenzyl)-1,2,3,6-tetrahydro-2,6-dioxo-9H-purin-8-yl)cinnamic Acid Nonaethylene Glycol Methyl Ether Ester]	410 ± 60 nM
COCCOCCOCCOCCOCCOCCOCCOCCOCCOC(=O)/C=C/c1ccc(-c2nc3c([nH]2)c(=O)n(CC2CCCCC2)c(=O)n3CC2CCCCC2)s1 [Example 98, (E)-3-[5-[1,3-bis(cyclohexylmethyl)-2,3,6,7-tetrahydro-2,6-dioxo-1H-purin-8-yl]-2-thienyl]-2-propenoic Acid Nonaethylene Glycol Methyl Ether Ester]	37 ± 23 nM
COCCOCCOCCOCCOCCOCCOCCOCCOCCOC(=O)/C=C/c1ccc(-c2nc3c(=O)n(C4CCCCC4)c(=O)n(C4CCCCC4)c3[nH]2)cc1 [Example 66, (E)-4-[1,3-Bis(cyclohexyl)-1,2,3,6-tetrahydro-2,6-dioxo-9H-purin-8-yl]cinnamic Acid Nonaethylene Glycol Methyl Ether Ester]	230 ± 100 nM
COCCOCCOCCOCCOCCOCCOCCOCCOCCOC(=O)CCc1ccc(-c2nc3c(c(=O)n(CC4CCCCC4)c(=O)n3CC3CCCCC3)n2C)cc1 [Example 90, 4-[(1,3-Bis(cyclohexylmethyl)-2,3,6,7-tetrahydro-2,6-dioxo-7-methyl-1H-purin-8-yl)phenyl] propionic Acid Nonaethylene Glycol Methyl Ether Ester]	240 ± 140 nM
COCCOCCOCCOCCOCCOCCOCCOCCOCCOC(=O)/C=C/c1ccc(-c2nc3c(c(=O)n(CC4CCCCC4)c(=O)n3CC3CCCCC3)n2CC(C)=O)cc1 [Example 81, (E)-4-(1,3-Bis(cyclohexylmethyl)-2,3,6,7-tetrahydro-2,6-dioxo7-(2-oxo-2-methylethyl)-1H-purin-8-yl)cinnamic Acid Nonaethylene Glycol Methyl Ether Ester]	16 ± 18 nM
CCCn1c(=O)c2nc(-c3cccc(/C=C/C(=O)OCCOCCOCCOCCOCCOCCOCCOCCOCCOC)c3)[nH]c2n(Cc2ccccc2)c1=O [Example 39, (E)-3-((1-propyl-3-benzyl)-1,2,3,6-tetrahydro-2,6-dioxo-9H-purin-8-yl)cinnamic Acid Nonaethylene Glycol Methyl Ether Ester]	130 ± 80 nM
COCCOCCOCCOCCOCCOCCOCCOCCOCCOC(=O)/C=C/c1ccc(-c2nc3c(=O)n(CC4CC5CCC4C5)c(=O)n(CC4CC5CCC4C5)c3[nH]2)cc1 (stereo not drawn) [Example 45, (E)-4-(1,3-bis(bicyclo(2.2.1)hept-2-ylmethyl)-1,2,3,6-tetrahydro-2,6-dioxo-9H-purin-8-yl)cinnamic Acid Nonaethylene Glycol Methyl Ether Ester]	42 ± 24 nM
COCCOCCOCCOCCOCCOCCOCCOCCOCCOC(=O)/C=C/c1ccc(-c2nc3c(=O)n(CC4CC4)c(=O)n(CC4CC4)c3[nH]2)cc1 [Example 38, (E)-4-(1,3-bis(cyclopropylmethyl)-1,2,3,6-tetrahydro-2,6-dioxo-9H-purin-8-yl)cinnamic Acid Nonaethylene Glycol Methyl Ether Ester]	150 ± 83 nM
CCCCn1c(=O)n(CC2CCCCC2)c(=O)c2nc(-c3ccc(/C=C/C(=O)OCCOCCOCCOCCOCCOCCOCCOCCOCCOC)cc3)[nH]c21 [Example 48]	< 0.1 nM
COCCOCCOCCOCCOCCOCCOCCOCCOCCOC(=O)/C=C/c1ccc(-c2nc3c(=O)n(C)c(=O)n(CC4CCCCC4)c3[nH]2)cc1 [Example 62]	160 ± 85 nM
COCCOCCOCCOCCOCCOCCOCCOCCOCCOC(=O)/C=C/c1ccc(-c2nc3c(=O)[nH]c(=O)n(CC(C)C)c3[nH]2)cc1 [Example 57]	83 ± 41 nM
COCCOCCOCCOCCOCCOCCOCCOCCOCCNC(=O)c1ccc(-c2nc3c(=O)n(CC4CCCCC4)c(=O)n(CC4CCCCC4)c3[nH]2)cc1 [Example 75, 4-(1,3-Bis(cyclohexylmethyl)-1,2,3,6-tetrahydro-2,6-dioxo-9H-purin-8-yl)benzoic Acid Nonaethylene Glycol Methyl Ether Amide]	60 ± 25 nM
COCCOCCOCCOCCOCCOCCOCCOCCOCCNC(=O)/C=C/c1ccc(-c2nc3c(=O)n(CC(C)C)c(=O)n(CC(C)C)c3[nH]2)cc1 [Example 72, (E)-4-(1,3-bis(2-methylpropyl)-1,2,3,6-tetrahydro-2,6-dioxo-9H-purin-8-yl)cinnamic Acid Nonaethylene Glycol Methyl Ether Amide]	> 2000 nM
COCCOCCOCCOCCOCCOCCOCCOCCOCCOC(=O)/C=C/c1ccc(-c2nc3c(=O)n(Cc4cccc(F)c4)c(=O)n(Cc4cccc(F)c4)c3[nH]2)cc1 [Example 53, (E)-4-(1,3-bis(3-fluorobenzyl)-1,2,3,6-tetrahydro-2,6-dioxo-9H-purin-8-yl)cinnamic Acid Nonaethylene Glycol Methyl Ether Ester]	39 ± 13 nM

Other lines, results leading:

IC50	Structure (SMILES)
110 ± 56 nM	COCCOCCOCCOCCOCCOCCOCCNCc1ccc(-c2nc3c(=O)n(CC4CCCCC4)c(=O)n(CC4CCCCC4)c3[nH]2)cc1 [Example 106, 4-[1,3-Bis(cyclohexylmethyl)-1,2.3,6-tetrahydro-2,6-dioxo-9H-purin-8-yl]benzylamine N-Heptaethylene Glycol Methyl Ether]
60 ± 29 nM	COCCOCCOCCOCCOCCOCCOCCOCCOCCNC(=O)/C=C/c1ccc(-c2nc3c(c(=O)n(CC4CCCCC4)c(=O)n3CC3CCCCC3)n2C)cc1 [Example 91, (E)-4-(1,3-Bis(cyclohexylmethyl)-2,3,6,7-tetrahydro-2,6-dioxo-7-methyl-1H-purin-8-yl)cinnamic Acid Nonaethylene Glycol Methyl Ether Amide]
300 ± 82 nM	COCCOCCOCCOCCOCCOCCOCCOCCOCCNCc1ccc(-c2nc3c(=O)n(CC4CCCCC4)c(=O)n(CC4CCCCC4)c3[nH]2)cc1 [Example 108, 4-[1,3-Bis(cyclohexylmethyl)-1,2,3,6-tetrahydro-2,6-dioxo-9H-purin-8-yl]benzylamine N-Nonaethylene Glycol Methyl Ether]
29 ± 3 nM	COCCOCCOCCOCCOCCOCCOCCOCCOCCOC(=O)/C=C/c1ccc(-c2nc3c(=O)n(CC4CCCCC4)c(=O)n(CC4CCCCC4)c3[nH]2)cc1 [Example 35, (E)-4-[1,3-Bis(cyclohexylmethyl)-1,2,3,6-tetrahydro-2,6-dioxo-9H-purin-8-yl)cinnamic Acid Nonaethylene Glycol Methyl Ether Ester]
< 0.1 nM	COCCOCCOCCOCCOCCOCCOCCOC(=O)/C=C/c1ccc(-c2nc3c(c(=O)n(CC4CCCCC4)c(=O)n3CC3CCCCC3)n2C)cc1 [Example 111, (E)-4-(1,3-Bis(cyclohexylmethyl)-2,3,6,7-tetrahydro-2,6-dioxo-7-methyl-1H-purin-8-yl)cinnamic Acid Heptaethylene Glycol Methyl Ether Ester]
57 ± 24 nM	CCCCCCCCCCCCOCCOCCOCCOCCOCCOCCOC(=O)/C=C/c1ccc(-c2nc3c(=O)n(CC4CCCCC4)c(=O)n(CC4CCCCC4)c3[nH]2)cc1 [Example 59, (E)-4-(1,3-bis(cyclohexylmethyl)-1,2,3,6-tetrahydro-2,6-dioxo-9H-purin-8-yl)cinnamic Acid Hexaethylene Glycol dodecyl Ether Ester]
11 ± 4 nM	COCCOCCOCCOCCOCCOCCOCCOCCOCCOC(=O)/C=C/c1ccc(-c2nc3c(=O)n(CC4CCC4)c(=O)n(CC4CCC4)c3[nH]2)cc1 [Example 61, (E)-4-(1,3-bis(cyclobutylmethyl)-1,2,3,6-tetrahydro-2,6-dioxo-9H-purin-8-yl)cinnamic Acid Nonaethylene Glycol Methyl Ether Ester]
340 ± 94 nM	O=C(/C=C/c1ccc(-c2nc3c(=O)n(CC4CCCCC4)c(=O)n(CC4CCCCC4)c3[nH]2)cc1)NCCOCCOCCOCCOCCOCCOCc1ccccc1 [Example 101, (E)-4-(1,3-Bis(cyclohexylmethyl)-1,2,3,6-tetrahydro-2,6-dioxo-9H-purin-8-yl)cinnamic Acid Hexaethylene Glycol Benzyl Ether Amide]
77 ± 29 nM	COCCOCCOCCOCCOCCOCCOCCOCCOCCNC(=O)c1ccc(-c2nc3c(=O)n(CC4CCCCC4)c(=O)n(CC4CCCCC4)c3[nH]2)nc1 [Example 99, 6-(1,3-Bis(cyclohexylmethyl)-1,2,3,6-tetrahydro-2,6-dioxo-9H-purin-8-yl)nicotinic Acid Nonaethylene Glycol Methyl Ether Amide]
23 ± 12 nM	COCCOCCOCCOCCOCCOCCOCCOCCOCCNC(=O)/C=C/c1ccc(-c2nc3c(c(=O)n(CC4CCCCC4)c(=O)n3CC3CCCCC3)n2Cc2ccccc2)cc1 [Example 92, (E)-4-(1,3-Bis(cyclohexylmethyl)-2,3,6,7-tetrahydro-2,6-dioxo-7-benzyl-1H-purin-8-yl)cinnamic Acid Nonaethylene Glycol Methyl Ether Amide]
25 ± 8 nM	COCCOCCOCCOCCOCCOCCOCCOCCOCCN(CC1CC1)C(=O)/C=C/c1ccc(-c2nc3c(=O)n(CC4CCCCC4)c(=O)n(CC4CCCCC4)c3[nH]2)cc1 [Example 100, (E)-4-(1,3-Bis(cyclohexylmethyl)-1,2,3,6-tetrahydro-2,6-dioxo-9H-purin-8-yl)cinnamic Acid N-cyclopropylmethyl Nonaethylene Glycol Methyl Ether Amide]
